Assay results from ChEMBL document CHEMBL3797133, “Structure-Based Design of an Iminoheterocyclic β-Site Amyloid Precursor Protein Cleaving Enzyme (BACE) Inhibitor that Lowers Central Aβ in Nonhuman Primates” (J Med Chem, 2016).

Tests used:
in vivo [1] = conditions: rat, brain homogenate, po, 10 mg/kg
in vivo [2] = conditions: rat, brain/plasma, po, 10 mg/kg

concentration at 6 h (in vivo [1]): 88 nM | Kp at 6 h (in vivo [2]): 0.4
SMILES: COc1nc(N2C[C@H]3C(=O)N(C)C(N)=N[C@@]3(c3c(F)ccc(F)c3F)C2)nc(C)c1F
